Eight compounds from ChEMBL document CHEMBL4359887, “Hitting on the move: Targeting intrinsically disordered protein states of the MDM2-p53 interaction” (Eur J Med Chem, 2019) can be followed below.

A word on the EC50: it is the concentration that produces a half-maximal response.

For test [1], the target named is E3 ubiquitin-protein ligase Mdm2 (Homo sapiens, UniProt Q00987).
The next test concerns the target T1, Protein Mdm4 (Homo sapiens, UniProt O15151).
T1 sequence (O15151 whole entry): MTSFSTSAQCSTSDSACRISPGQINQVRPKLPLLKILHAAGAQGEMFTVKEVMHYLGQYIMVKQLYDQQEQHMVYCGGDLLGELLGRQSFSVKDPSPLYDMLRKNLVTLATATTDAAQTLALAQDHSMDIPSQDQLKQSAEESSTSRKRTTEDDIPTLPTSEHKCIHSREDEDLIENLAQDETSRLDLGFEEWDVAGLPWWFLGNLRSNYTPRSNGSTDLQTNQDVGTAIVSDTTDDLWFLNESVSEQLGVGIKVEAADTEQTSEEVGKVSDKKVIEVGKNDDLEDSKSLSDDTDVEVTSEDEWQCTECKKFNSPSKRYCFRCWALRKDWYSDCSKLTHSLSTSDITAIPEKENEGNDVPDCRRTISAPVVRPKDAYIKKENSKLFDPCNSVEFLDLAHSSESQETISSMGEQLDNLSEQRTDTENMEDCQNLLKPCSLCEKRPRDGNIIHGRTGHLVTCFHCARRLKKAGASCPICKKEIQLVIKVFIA

The subject of another test is SAOS-2. In words: Anticancer activity against p53-deleted human Saos2 cells assessed as inhibition of cell viability measured after 5 days by MTT assay. Conditions: SAOS-2, 120 h; call rule not given here.
Another test deals with U2OS. As to the kind of experiment: Anticancer activity against human U2OS cells expressing wild-type p53 assessed as inhibition of cell viability measured after 5 days by MTT assay. Conditions: 120 h. For orientation: Tetrazolium dyes change colour on reduction, which living cells bring about.
In test [2] the test system is HCT-116. As to the kind of experiment: Induction of apoptosis in human HCT116 cells expressing wild type p53 assessed as necrotic cells at 20 uM measured after 72 hrs by annexin V-FITC/propidium iodide staining-based flow cytometry analysis (reference value: 0.7 %). Type of test: functional.
In test [3] the test system is HCT-116. In words: Induction of apoptosis in human HCT116 cells expressing wild type p53 assessed as early apoptotic cells expressing wild type p53 at 20 uM measured after 72 hrs by annexin V-FITC/propidium iodide staining-based flow cytometry analysis (reference value: 8.8 %). It counts as functional.
For test [4], the system named is HCT-116. In words: Induction of apoptosis in human HCT116 cells assessed as late apoptotic cells expressing wild type p53 at 20 uM measured after 72 hrs by annexin V-FITC/propidium iodide staining-based flow cytometry analysis (reference value: 6.8 %). Type of test: functional. In general terms: A flow cytometer gives signals particle by particle.
In test [5] the test system is HCT-116. As to the kind of experiment: Induction of apoptosis in human HCT116 cells expressing wild type p53 assessed as live cells at 20 uM measured after 72 hrs by annexin V-FITC/propidium iodide staining-based flow cytometry analysis (reference value: 83.7 %). It counts as functional.

Sequence of E3 ubiquitin-protein ligase Mdm2 (Q00987 whole entry): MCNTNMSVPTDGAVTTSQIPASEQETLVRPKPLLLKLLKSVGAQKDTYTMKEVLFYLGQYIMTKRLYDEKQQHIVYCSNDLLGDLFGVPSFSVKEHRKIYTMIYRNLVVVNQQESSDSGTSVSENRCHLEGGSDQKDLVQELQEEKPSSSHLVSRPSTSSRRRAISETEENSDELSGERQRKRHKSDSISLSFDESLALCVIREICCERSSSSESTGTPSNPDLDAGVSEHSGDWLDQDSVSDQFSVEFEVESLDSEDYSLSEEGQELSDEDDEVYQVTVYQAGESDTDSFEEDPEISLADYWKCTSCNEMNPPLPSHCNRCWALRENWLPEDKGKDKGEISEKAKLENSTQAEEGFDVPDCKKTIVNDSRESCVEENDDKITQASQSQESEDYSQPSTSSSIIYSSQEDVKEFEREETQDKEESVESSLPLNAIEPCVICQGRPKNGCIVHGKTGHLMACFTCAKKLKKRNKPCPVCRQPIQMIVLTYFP

Consider `CC(C)(C)NC(=O)C(c1ccc(Cl)cc1)N(C=O)Cc1ccc(OCc2ccc(Cl)c(Cl)c2)cc1` (centres undefined), for which the Ki entry (in test [1]; at Protein Mdm4) was “Not Active” each time.

Regarding `CN(Cc1ccc(OCc2ccccc2Br)cc1)C(C(=O)NC(C)(C)C)c1c(C(=O)O)[nH]c2cc(Cl)ccc12` (centres undefined), the Ki result (in test [1]; at Protein Mdm4) was “Not Active” throughout.

Turning to `CC(C)(C)NC(=O)C(c1cccc(Cl)c1)N(C=O)Cc1ccc(Cl)cc1` (centres undefined), the Ki result (in test [1]; at Protein Mdm4) was “Not Active” in each case.

Consider `CC1(C)[C@H]2CC[C@@]1(C)C(NC(=O)C(c1c(C(=O)O)[nH]c3cc(Cl)ccc13)N(C=O)Cc1ccc(OCc3ccccc3Br)cc1)C2` (some centres undefined), for which the figures for the 50% effective concentration (EC50) in the test with SAOS-2 and in the test on U2OS were 60 µM and 40 µM, respectively.

`O=CN(Cc1ccc(OCc2ccccc2Br)cc1)C(C(=O)NC1C2CC3CC(C2)CC1C3)c1c(C(=O)O)[nH]c2cc(Cl)ccc12` (centres undefined): the results for the half-maximal effective concentration (EC50) in the test on SAOS-2 and in the test on U2OS were 130 µM and 40 µM, respectively.

As to `CC(C)(C)NC(=O)[C@H](c1c(C(=O)O)[nH]c2cc(Cl)ccc12)N(C=O)Cc1ccc(OCc2ccccc2Br)cc1`, the half-maximal effective concentration (EC50) in the test on SAOS-2 was 200 µM; with U2OS, 130 µM.

In the case of `Cn1c(C(=O)O)c(C(C(=O)NC(C)(C)C)N(C=O)Cc2ccc(OCc3ccccc3Br)cc2)c2ccc(Cl)cc21` (centres undefined), the Ki entry (in test [1]; on Protein Mdm4) was “Not Active” each time.

For `COc1ccc(C2=N[C@@H](c3ccc(Cl)cc3)[C@@H](c3ccc(Cl)cc3)N2C(=O)N2CCNC(=O)C2)c(OC(C)C)c1` [NUTLIN-3], the Activity in the test on HCT-116 [2] was 1.2%; with HCT-116 [3], 26.9%; in the test on HCT-116 [4], 18.9%; in the test with HCT-116 [5] it was 53%. Moreover, in test [1], the Ki result is reported as “Not Active”.
